Measured values: PubChem BioAssay AID1963425 (Molecular Pharmacology Branch, DTP, NCI, 2024)

System: 323965-272-R-J2-PDC complex spheroid growth, % test/control
Experiment: Anticancer human tumor 323965-272-R-J2-PDC patient-derived pancreatic carcinoma cell line growth inhibition [Asc]
Conditions: for IC50: curve of first compound; for viability, T/C: stronger effect = lower value
Procedure, shortened: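 Complex solid-tumor spheroids incorporating human endothelial and mesenchymal stem cells received single agents or combinations over half-log dilution ranges anchored to clinical Cmax.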
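Also: compound exposure lasted 7 days starting three days after spheroid seeding.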
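For viability, T/C in this document: 100% = DMSO vehicle control wells with viability set relative to vehicle.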

Q: `Cn1ncnc1[C@H]1c2n[nH]c(=O)c3cc(F)cc(c23)N[C@@H]1c1ccc(F)cc1` + CNC(C)C(=O)NC1CN(S(=O)(=O)c2cccc(S(=O)(=O)N3CCC4CCC(C(=O)NC(c5ccccc5)c5ccccc5)N4C(=O)C(NC(=O)C(C)NC)C3)c2)CCC2CCC(C(=O)NC(c3ccccc3)c3ccccc3)N2C1=O was tested. Which IC50 (second compound 0.00316 µM) did it give?
A: < 0.316 nM

Q: And the IC50 (second compound 0.01 µM)?
A: > 100 nM

Q: And the IC50 (second compound 0.0316 µM)?
A: > 100 nM

Q: What about the IC50 (second compound 0.1 µM) of the same compound?
A: > 100 nM

Q: And the IC50 (second compound 0.316 µM)?
A: > 100 nM

Q: And the IC50 (second compound 1 µM)?
A: > 100 nM

Q: What about the viability, T/C (second compound 0.00316 µM, first compound 0.000316 µM) of the same compound?
A: 49.4%

Q: And the viability, T/C (second compound 0.00316 µM, first compound 0.001 µM)?
A: 49.2%

Q: What about the viability, T/C (second compound 0.00316 µM, first compound 0.00316 µM) of the same compound?
A: 46.2%

Q: What about the viability, T/C (second compound 0.00316 µM, first compound 0.01 µM) of the same compound?
A: 47.6%

Q: And the viability, T/C (second compound 0.00316 µM, first compound 0.0316 µM)?
A: 49.5%

Q: What about the viability, T/C (second compound 0.00316 µM, first compound 0.1 µM) of the same compound?
A: 47.7%

Q: What about the viability, T/C (second compound 0.01 µM, first compound 0.000316 µM) of the same compound?
A: 119%

Q: What about the viability, T/C (second compound 0.01 µM, first compound 0.001 µM) of the same compound?
A: 92.3%

Q: What about the viability, T/C (second compound 0.01 µM, first compound 0.00316 µM) of the same compound?
A: 97.3%

Q: And the viability, T/C (second compound 0.01 µM, first compound 0.01 µM)?
A: 90.1%

Q: What about the viability, T/C (second compound 0.01 µM, first compound 0.0316 µM) of the same compound?
A: 87.8%

Q: What about the viability, T/C (second compound 0.01 µM, first compound 0.1 µM) of the same compound?
A: 85.5%

Q: What about the viability, T/C (second compound 0.0316 µM, first compound 0.000316 µM) of the same compound?
A: 107%

Q: What about the viability, T/C (second compound 0.0316 µM, first compound 0.001 µM) of the same compound?
A: 93.8%

Q: What about the viability, T/C (second compound 0.0316 µM, first compound 0.00316 µM) of the same compound?
A: 87.6%

Q: And the viability, T/C (second compound 0.0316 µM, first compound 0.01 µM)?
A: 105%

Q: What about the viability, T/C (second compound 0.0316 µM, first compound 0.0316 µM) of the same compound?
A: 92%

Q: What about the viability, T/C (second compound 0.0316 µM, first compound 0.1 µM) of the same compound?
A: 91%

Q: And the viability, T/C (second compound 0.1 µM, first compound 0.000316 µM)?
A: 94.3%

Q: And the viability, T/C (second compound 0.1 µM, first compound 0.001 µM)?
A: 106%

Q: What about the viability, T/C (second compound 0.1 µM, first compound 0.00316 µM) of the same compound?
A: 112%

Q: And the viability, T/C (second compound 0.1 µM, first compound 0.01 µM)?
A: 97.6%

Q: And the viability, T/C (second compound 0.1 µM, first compound 0.0316 µM)?
A: 84%

Q: What about the viability, T/C (second compound 0.1 µM, first compound 0.1 µM) of the same compound?
A: 91.7%

Q: And the viability, T/C (second compound 0.316 µM, first compound 0.000316 µM)?
A: 103%

Q: What about the viability, T/C (second compound 0.316 µM, first compound 0.001 µM) of the same compound?
A: 89.8%

Q: And the viability, T/C (second compound 0.316 µM, first compound 0.00316 µM)?
A: 101%

Q: And the viability, T/C (second compound 0.316 µM, first compound 0.01 µM)?
A: 92.7%

Q: What about the viability, T/C (second compound 0.316 µM, first compound 0.0316 µM) of the same compound?
A: 88.2%

Q: What about the viability, T/C (second compound 0.316 µM, first compound 0.1 µM) of the same compound?
A: 89%

Q: And the viability, T/C (second compound 1 µM, first compound 0.000316 µM)?
A: 87.5%

Q: What about the viability, T/C (second compound 1 µM, first compound 0.001 µM) of the same compound?
A: 90.7%

Q: What about the viability, T/C (second compound 1 µM, first compound 0.00316 µM) of the same compound?
A: 94.4%

Q: What about the viability, T/C (second compound 1 µM, first compound 0.01 µM) of the same compound?
A: 83.7%

Q: And the viability, T/C (second compound 1 µM, first compound 0.0316 µM)?
A: 89.7%

Q: What about the viability, T/C (second compound 1 µM, first compound 0.1 µM) of the same compound?
A: 86.3%

Q: With `CCN1CCN(Cc2ccc(Nc3ncc(F)c(-c4cc(F)c5nc(C)n(C(C)C)c5c4)n3)nc2)CC1` + CCN1C(C(=O)NC23CCC(C(=O)O)(CC2)CC3)C(c2cccc(Cl)c2F)C2(C(=O)Nc3cc(Cl)ccc32)C12CCCCC2 as the compound, how does the IC50 (second compound 0.00949 µM) read?
A: > 1000 nM

Q: And the IC50 (second compound 0.03 µM)?
A: > 1000 nM

Q: What about the IC50 (second compound 0.0949 µM) of the same compound?
A: > 1000 nM

Q: And the IC50 (second compound 0.3 µM)?
A: > 1000 nM

Q: What about the IC50 (second compound 0.949 µM) of the same compound?
A: > 1000 nM

Q: And the IC50 (second compound 3 µM)?
A: > 1000 nM

Q: And the viability, T/C (second compound 0.00949 µM, first compound 0.00316 µM)?
A: 107%

Q: And the viability, T/C (second compound 0.00949 µM, first compound 0.01 µM)?
A: 107%

Q: What about the viability, T/C (second compound 0.00949 µM, first compound 0.0316 µM) of the same compound?
A: 105%

Q: What about the viability, T/C (second compound 0.00949 µM, first compound 0.1 µM) of the same compound?
A: 86.2%

Q: What about the viability, T/C (second compound 0.00949 µM, first compound 0.316 µM) of the same compound?
A: 68.7%

Q: What about the viability, T/C (second compound 0.00949 µM, first compound 1 µM) of the same compound?
A: 77%

Q: What about the viability, T/C (second compound 0.03 µM, first compound 0.00316 µM) of the same compound?
A: 103%

Q: What about the viability, T/C (second compound 0.03 µM, first compound 0.01 µM) of the same compound?
A: 104%

Q: What about the viability, T/C (second compound 0.03 µM, first compound 0.0316 µM) of the same compound?
A: 96.7%

Q: And the viability, T/C (second compound 0.03 µM, first compound 0.1 µM)?
A: 84.5%

Q: And the viability, T/C (second compound 0.03 µM, first compound 0.316 µM)?
A: 69.5%

Q: What about the viability, T/C (second compound 0.03 µM, first compound 1 µM) of the same compound?
A: 65.8%

Q: And the viability, T/C (second compound 0.0949 µM, first compound 0.00316 µM)?
A: 118%

Q: What about the viability, T/C (second compound 0.0949 µM, first compound 0.01 µM) of the same compound?
A: 112%

Q: What about the viability, T/C (second compound 0.0949 µM, first compound 0.0316 µM) of the same compound?
A: 92.2%

Q: What about the viability, T/C (second compound 0.0949 µM, first compound 0.1 µM) of the same compound?
A: 80%

Q: What about the viability, T/C (second compound 0.0949 µM, first compound 0.316 µM) of the same compound?
A: 70.3%

Q: What about the viability, T/C (second compound 0.0949 µM, first compound 1 µM) of the same compound?
A: 65.2%

Q: What about the viability, T/C (second compound 0.3 µM, first compound 0.00316 µM) of the same compound?
A: 111%

Q: What about the viability, T/C (second compound 0.3 µM, first compound 0.01 µM) of the same compound?
A: 104%

Q: What about the viability, T/C (second compound 0.3 µM, first compound 0.0316 µM) of the same compound?
A: 96.6%

Q: And the viability, T/C (second compound 0.3 µM, first compound 0.1 µM)?
A: 78.9%

Q: What about the viability, T/C (second compound 0.3 µM, first compound 0.316 µM) of the same compound?
A: 85.1%

Q: And the viability, T/C (second compound 0.3 µM, first compound 1 µM)?
A: 77.1%

Q: And the viability, T/C (second compound 0.949 µM, first compound 0.00316 µM)?
A: 99.8%

Q: What about the viability, T/C (second compound 0.949 µM, first compound 0.01 µM) of the same compound?
A: 107%

Q: What about the viability, T/C (second compound 0.949 µM, first compound 0.0316 µM) of the same compound?
A: 95.9%

Q: And the viability, T/C (second compound 0.949 µM, first compound 0.1 µM)?
A: 85.8%

Q: What about the viability, T/C (second compound 0.949 µM, first compound 0.316 µM) of the same compound?
A: 73.1%

Q: And the viability, T/C (second compound 0.949 µM, first compound 1 µM)?
A: 77.5%

Q: What about the viability, T/C (second compound 3 µM, first compound 0.00316 µM) of the same compound?
A: 101%

Q: What about the viability, T/C (second compound 3 µM, first compound 0.01 µM) of the same compound?
A: 115%

Q: What about the viability, T/C (second compound 3 µM, first compound 0.0316 µM) of the same compound?
A: 97%

Q: And the viability, T/C (second compound 3 µM, first compound 0.1 µM)?
A: 77%

Q: And the viability, T/C (second compound 3 µM, first compound 0.316 µM)?
A: 78%

Q: What about the viability, T/C (second compound 3 µM, first compound 1 µM) of the same compound?
A: 78.9%
